Measured values as given in ChEMBL document CHEMBL3585290, “Synthesis and biological evaluation of novel bivalent -carbolines as potential antitumor agents” (Medchemcomm, 2014).

Columns and labels:
[1] = Acute toxicity in ip dosed C57BL/6 mouse measured for 14 days; assay type: organism-based; settings: in vivo
SK-OV-3 = assay: Cytotoxicity against human SKOV3 cells after 48 hrs by MTT assay; assay type: functional, cell-based; settings: SK-OV-3, 48 h
CT26 [2] = assay: Antitumor activity against mouse CT26 cells implanted in mouse assessed as tumor growth inhibition at 32.3 umol/kg, ip qd administered for 7 days starting 24 hrs post tumor implantation measured after day 21 relative to control; assay type: functional; settings: read-out: TGI
KB = assay: Cytotoxicity against human KB cells after 48 hrs by MTT assay; assay type: functional, cell-based
769-P = assay: Cytotoxicity against human 769-P cells after 48 hrs by MTT assay; assay type: functional, cell-based
A-375 = assay: Cytotoxicity against human A375 cells after 48 hrs by MTT assay; assay type: functional, cell-based; settings: A-375, 48 h
[3] = Cytotoxicity against human BGC823 cells after 48 hrs by MTT assay; assay type: functional, cell-based; settings: BGC-823, 48 h
[4] = system: Lewis lung carcinoma cell line; assay: Antitumor activity against mouse LLC cells implanted in mouse assessed as tumor growth inhibition at 32.3 umol/kg, ip qd administered for 7 days starting 24 hrs post tumor implantation measured after day 21 relative to control; assay type: functional; settings: read-out: TGI
CT26 [5] = assay: Antitumor activity against mouse CT26 cells implanted in mouse assessed as tumor growth inhibition at 26.9 umol/kg, ip qd administered for 7 days starting 24 hrs post tumor implantation measured after day 21 relative to control; assay type: functional; settings: read-out: TGI
[6] = system: Lewis lung carcinoma cell line; assay: Antitumor activity against mouse LLC cells implanted in mouse assessed as tumor growth inhibition at 26.9 umol/kg, ip qd administered for 7 days starting 24 hrs post tumor implantation measured after day 21 relative to control; assay type: functional; settings: read-out: TGI
CT26 [7] = assay: Antitumor activity against mouse CT26 cells implanted in mouse assessed as tumor growth inhibition at 11.1 umol/kg, ip qd administered for 7 days starting 24 hrs post tumor implantation measured after day 21 relative to control; assay type: functional; settings: read-out: TGI
[8] = system: Lewis lung carcinoma cell line; assay: Antitumor activity against mouse LLC cells implanted in mouse assessed as tumor growth inhibition at 11.1 umol/kg, ip qd administered for 7 days starting 24 hrs post tumor implantation measured after day 21 relative to control; assay type: functional; settings: read-out: TGI
CT26 [9] = assay: Antitumor activity against mouse CT26 cells implanted in mouse assessed as tumor growth inhibition at 76.9 umol/kg, ip qd administered for 7 days starting 24 hrs post tumor implantation measured after day 21 relative to control; assay type: functional; settings: read-out: TGI
[10] = system: Lewis lung carcinoma cell line; assay: Antitumor activity against mouse LLC cells implanted in mouse assessed as tumor growth inhibition at 76.9 umol/kg, ip qd administered for 7 days starting 24 hrs post tumor implantation measured after day 21 relative to control; assay type: functional; settings: read-out: TGI

CCCCn1c2ccccc2c2cc(C(=O)OCCCCCCOC(=O)c3cc4c5ccccc5n(CCCC)c4cn3)ncc21
LD50 at 336 h [1]: 162 µmol/kg | IC50 (SK-OV-3): > 200 µM | inhibition in vivo at 32.3 µmol/kg (CT26 [2]): 33.8% | IC50 (KB): 15.6 µM | IC50 (769-P): 112 µM | IC50 (A-375): 18.2 µM | IC50 [3]: 43.2 µM | inhibition in vivo at 32.3 µmol/kg [4]: 64.2%

CCCCn1c2ccccc2c2cc(C(=O)OCCCCOC(=O)c3cc4c5ccccc5n(CCCC)c4cn3)ncc21
IC50 (SK-OV-3): 123 µM | IC50 (KB): 89 µM | IC50 (769-P): 42.6 µM | IC50 (A-375): > 200 µM | IC50 [3]: 116 µM

O=C(OCCCCCCOC(=O)c1cc2c3ccccc3n(Cc3cccc(Cl)c3)c2cn1)c1cc2c3ccccc3n(Cc3cccc(Cl)c3)c2cn1
IC50 (SK-OV-3): 19 µM | IC50 (KB): 46.9 µM | IC50 (769-P): 21.9 µM | IC50 (A-375): > 200 µM | IC50 [3]: > 200 µM

O=C(OCCCCCCOC(=O)c1cc2c3ccccc3n(Cc3ccccc3)c2cn1)c1cc2c3ccccc3n(Cc3ccccc3)c2cn1
IC50 (SK-OV-3): 27.8 µM | IC50 (KB): 15.7 µM | IC50 (769-P): 46.8 µM | IC50 (A-375): > 200 µM | IC50 [3]: 164 µM

Cc1nc(C(=O)OCCCCCCCCCCOC(=O)c2cc3c4ccccc4n(C)c3c(C)n2)cc2c3ccccc3n(C)c12
IC50 (SK-OV-3): > 200 µM | IC50 (KB): 198 µM | IC50 (769-P): 42.9 µM | IC50 (A-375): 125 µM | IC50 [3]: > 200 µM

O=C(OCCCCCCOC(=O)c1cc2c3ccccc3n(CCCc3ccccc3)c2cn1)c1cc2c3ccccc3n(CCCc3ccccc3)c2cn1
LD50 at 336 h [1]: 135 µmol/kg | IC50 (SK-OV-3): 8.5 µM | inhibition in vivo at 26.9 µmol/kg (CT26 [5]): 28.3% | IC50 (KB): 56.4 µM | IC50 (769-P): 29.4 µM | IC50 (A-375): 14.4 µM | IC50 [3]: > 200 µM | inhibition in vivo at 26.9 µmol/kg [6]: 53.5%

CCCCn1c2ccccc2c2cc(C(=O)OCCCCCCOC(=O)c3cc4c5ccccc5n(CCCC)c4c(C)n3)nc(C)c21
IC50 (SK-OV-3): > 200 µM | IC50 (KB): 54.6 µM | IC50 (769-P): 60.5 µM | IC50 (A-375): > 200 µM | IC50 [3]: > 200 µM

CCCCn1c2ccccc2c2cc(C(=O)OCCCCCCCCOC(=O)c3cc4c5ccccc5n(CCCC)c4cn3)ncc21
IC50 (SK-OV-3): 124 µM | IC50 (KB): 19.8 µM | IC50 (769-P): 210 µM | IC50 (A-375): 146 µM | IC50 [3]: 68.9 µM

Cc1nc(C(=O)OCCCCCCOC(=O)c2cc3c4ccccc4n(Cc4ccccc4)c3c(C)n2)cc2c3ccccc3n(Cc3ccccc3)c12
IC50 (SK-OV-3): > 200 µM | IC50 (KB): 112 µM | IC50 (769-P): 64.7 µM | IC50 (A-375): > 200 µM | IC50 [3]: > 200 µM

O=C(OCCCCCCCCOC(=O)c1cc2c3ccccc3n(Cc3ccccc3)c2cn1)c1cc2c3ccccc3n(Cc3ccccc3)c2cn1
IC50 (SK-OV-3): > 200 µM | IC50 (KB): 162 µM | IC50 (769-P): 68.6 µM | IC50 (A-375): > 200 µM | IC50 [3]: > 200 µM

COc1ccc(-c2nc(C(=O)OCCCCCCOC(=O)c3cc4c5ccccc5n(CCCc5ccccc5)c4c(-c4ccc(OC)cc4)n3)cc3c4ccccc4n(CCCc4ccccc4)c23)cc1
LD50 at 336 h [1]: 55.8 µmol/kg | IC50 (SK-OV-3): > 200 µM | IC50 (KB): 218 µM | IC50 (769-P): 95.5 µM | inhibition in vivo at 11.1 µmol/kg (CT26 [7]): 15.1% | IC50 (A-375): 132 µM | IC50 [3]: 140 µM | inhibition in vivo at 11.1 µmol/kg [8]: 24.6%

Cc1nc(C(=O)OCCCOC(=O)c2cc3c4ccccc4n(C)c3c(C)n2)cc2c3ccccc3n(C)c12
inhibition in vivo at 76.9 µmol/kg (CT26 [9]): 23.6% | LD50 at 336 h [1]: 385 µmol/kg | IC50 (SK-OV-3): 21 µM | IC50 (KB): 18.4 µM | IC50 (769-P): 16.3 µM | IC50 (A-375): 16.6 µM | IC50 [3]: 19.5 µM | inhibition in vivo at 76.9 µmol/kg [10]: 28.1%

CCn1c2ccccc2c2cc(C(=O)OCCCCCCOC(=O)c3cc4c5ccccc5n(CC)c4c(C)n3)nc(C)c21
IC50 (SK-OV-3): > 200 µM | IC50 (KB): 16.5 µM | IC50 (769-P): 43.1 µM | IC50 (A-375): 32.9 µM | IC50 [3]: > 200 µM

Cc1nc(C(=O)OCCCCCCOC(=O)c2cc3c4ccccc4n(CCCc4ccccc4)c3c(C)n2)cc2c3ccccc3n(CCCc3ccccc3)c12
IC50 (SK-OV-3): 73.4 µM | IC50 (KB): > 200 µM | IC50 (769-P): 21.8 µM | IC50 (A-375): > 200 µM | IC50 [3]: > 200 µM

O=C(OCCCCCCCCCOC(=O)c1cc2c3ccccc3n(Cc3cccc(Cl)c3)c2cn1)c1cc2c3ccccc3n(Cc3cccc(Cl)c3)c2cn1
IC50 (SK-OV-3): > 200 µM | IC50 (KB): 71.2 µM | IC50 (769-P): 145 µM | IC50 (A-375): > 200 µM | IC50 [3]: > 200 µM

CCCCn1c2ccccc2c2cc(C(=O)OCCCCCCCCCCOC(=O)c3cc4c5ccccc5n(CCCC)c4c(C)n3)nc(C)c21
IC50 (SK-OV-3): > 200 µM | IC50 (KB): > 200 µM | IC50 (769-P): 114 µM | IC50 (A-375): 42 µM | IC50 [3]: > 200 µM
